For one test, the target named is T1, Cathepsin D (Cat D) (Homo sapiens, UniProt P07339).
T1 construct: made in house; host or cells: CHO cells
Description: In vitro enzymatic Cathepsin D (Cat D) FRET assay. To be noted: read-out: CatD IC50. It counts as biochemical. A digest of the protocol: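 Recombinant human Cat D expressed in CHO cells, 9 nM, pre-incubated 1 h with inhibitor in 0.05 M citrate pH 3.5, 10% DMSO, 5 mM CHAPS. Reaction started with 20 nM FRET peptide substrate, run 1 h, stopped with Tris to neutral pH; fluorescence read at ex 500/em 580 nm.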

The next test has as its system Abeta 40. The experiment in a line: In vivo inhibition of beta-secretase: percent Abeta 40 reduction in CSF and brain. Further details: species or system rat. Conditions: 10 mpk, after 4 hrs. An excerpt:
In Vivo Inhibition of Beta-Secretase
Several animal models, including mouse, rat, dog, and monkey, may be used to screen for inhibition of beta-secretase activity in vivo following administration of a test compound sample. Animals used in this invention can be wild type, transgenic, or gene knockout animals. For example, the Tg2576 mouse model, prepared and conducted as described in Hsiao et al., 1996, Science 274, 99-102, and other non-transgenic or gene knockout animals are useful to analyze in vivo inhibition of Amyloid beta peptide (Abeta) production in the presence of inhibitory test compounds. Generally, 2 to 18 month old Tg2576 mice, gene knockout mice or non-transgenic animals are administered test compounds formulated in vehicles, such as cyclodextran, phosphate buffers, hydroxypropyl methylcellulose or other suitable vehicles. One to twenty-four hours following the administration of compound, animals are sacrificed, and brains as well as cerebrospinal fluid (CSF) and plasma are removed for analysis of A-beta levels and drug or test compound concentrations (Dovey et al., 2001, Journal of Neurochemistry, 76, 173-181) Beginning at time 0, animals are administered by oral gavage, or other means of delivery such as intravenous injection, an inhibitory test compound of up to 100 mg/kg in a standard, conventional formulation, such as 2% hydroxypropyl methylcellulose, 1% Tween80. A separate group of animals receive 2% hydroxypropyl methylcellulose, 1% Tween80 alone, containing no test compound, and serve as a vehicle-control group. At the end of the test period, animals are sacrificed and brain tissues, plasma or cerebrospinal fluid are collected. Brains are either homogenized in 10 volumes (w/v) of 0.2% diethylamine (DEA) in 50 mM NaCl (Best et al., 2005, Journal of Pharmacology and Experimental Therapeutics, 313, 902-908), or in 10 volumes of 0.5% TritonX-100 in Tris-buffered saline (pH at about 7.6). Homogenates are centrifuged at 355,000 g, 4° C. for 30 minutes. CSF or brain supernatants are then analyzed for the presence of A-beta peptide by specific sandwich ELISA assays based on ECL (Electrochemiluminescence) technology. For example, rat Abeta40 is measured using biotinylated-4G8 (Signet) as a capture antibody and Fab40 (an in-house antibody specific to the C-terminal of Abeta40) as a detection antibody. For example, 4 hours after administration of 30 mg/kg oral dose of the test compound in 2% hydroxypropyl methylcellulose, 1% Tween80 (pH2.2) to 200 g male Sprague Dawley rats, amyloid beta peptide levels are measured for reduction by X % and Y % in cerebrospinal fluid and brain, respectively, when compared to the levels measured in the vehicle-treated or control […].
Actual vehicles used: Oral: 2% HPMC, 1% Tween80, pH 2.2
• IV: 5% EtOH, 45% Propylene glycol in 5% Dextrose
The compounds of the invention may be shown to reduce the formation and/or deposition of amyloid beta peptide in the cerebrospinal fluid (CSF) as well as in the brain of a mouse or rat at either 3 mpk, 10 mpk or 30 mpk (mpk=mg compound per kg weight of the animal) dosing concentrations after 4 hrs.

Test [1] relates to Aβ40 in conditioned medium of cells stably expressing Amyloid Precursor Protein (APP). The experiment in a line: In vitro BACE cell-based assay (HEK cell assay, Aβ40 sandwich ELISA). To be noted: Homo sapiens, HEK293. In a few lines: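 APP-stable cells were cultured 24 h at 37 °C, then given compound as 10-point dose-response (top 100 μM or 10 μM; 0.1% DMSO final) for 24 h. Aβ40 in conditioned medium was measured by sandwich ELISA (pAb40 capture, biotinylated 6E10 detection, Eu time-resolved fluorescence). IC50 from percent inhibition versus concentration.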
Background: An ELISA detects its analyte on a solid surface through an enzyme-linked reagent.

For a further test, the target named is BACE1 (Homo sapiens, UniProt P56817). Description: In vitro enzymatic BACE FRET assay. It counts as biochemical. In a few lines: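 BACE (0.2 nM) pre-incubated 1 h with serially diluted inhibitor in 0.05 M acetate pH 4.2, 10% DMSO, 100 uM genapol; 50 nM FRET peptide substrate added, 1 h incubation. Stopped with Tris to neutral pH; fluorescence read (ex 488, […]).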
Sequence of BACE1 (P56817 46-501, species assumed): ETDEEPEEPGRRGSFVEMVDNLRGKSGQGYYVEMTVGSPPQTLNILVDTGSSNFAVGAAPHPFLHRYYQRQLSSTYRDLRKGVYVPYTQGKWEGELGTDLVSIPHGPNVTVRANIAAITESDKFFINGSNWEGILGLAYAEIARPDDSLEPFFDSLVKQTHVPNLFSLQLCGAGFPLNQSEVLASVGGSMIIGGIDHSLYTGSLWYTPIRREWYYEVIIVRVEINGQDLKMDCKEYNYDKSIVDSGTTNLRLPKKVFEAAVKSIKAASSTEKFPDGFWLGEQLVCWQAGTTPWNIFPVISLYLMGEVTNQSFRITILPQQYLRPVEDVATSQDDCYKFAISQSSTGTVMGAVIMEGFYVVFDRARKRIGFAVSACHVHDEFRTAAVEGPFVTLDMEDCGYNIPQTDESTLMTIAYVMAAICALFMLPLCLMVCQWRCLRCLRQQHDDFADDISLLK

[2] abbreviates: Abeta 40, rat CSF, read-out: % reduction of rat CSF levels at 10 pmk.
Where [3] appears, read: Abeta 40, rat brain, read-out: % reduction of rat brain levels at 10 mpk.
The mark [4] stands for this setting: Aβ40, 24 h incubation, read-out: HEK cell assay IC50.
[5] abbreviates: read-out: BACE1 FRET assay IC50.
Where [6] appears, read: average IC50, read-out: BACE1 cell assay IC50.
[7] abbreviates: average IC50, read-out: BACE1 Enzyme assay IC50.

Like-named read-outs stand apart in the source and are kept apart here. Some results are limits rather than exact numbers.

T1 sequence (P07339 65-412, species assumed): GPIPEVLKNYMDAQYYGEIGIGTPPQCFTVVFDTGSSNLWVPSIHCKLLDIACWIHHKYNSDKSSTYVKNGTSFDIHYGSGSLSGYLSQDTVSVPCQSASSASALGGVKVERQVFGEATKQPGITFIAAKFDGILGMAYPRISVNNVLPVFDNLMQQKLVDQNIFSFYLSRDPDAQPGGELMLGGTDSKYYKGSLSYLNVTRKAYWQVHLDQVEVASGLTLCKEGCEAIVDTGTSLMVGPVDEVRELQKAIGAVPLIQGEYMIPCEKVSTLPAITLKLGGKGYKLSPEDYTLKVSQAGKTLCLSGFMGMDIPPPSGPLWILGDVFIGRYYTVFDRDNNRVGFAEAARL

A word on the IC50: it is the point on the concentration scale where inhibition reaches its midpoint. Regarding `Cc1cc(Cl)cnc1C(=O)Nc1ccc(F)c([C@@]2(C)N=C(N)[C@@]3(C)CC[C@@H]2S3(=O)=O)c1` [Example 22, N-(3-((1S,2R,5R)-4-Amino-2,5-dimethyl-8,8-dioxido-8-thia-3-azabicyclo[3.2.1]oct-3-en-2-yl)-4-fluorophenyl)-5-chloro-3-methylpicolinamide], the IC50 stood at 1740 µM on Cathepsin D (Cat D), 0.002 µM in test [1] (setting [4]) and 0.002 µM on BACE1 (setting [5]). In addition, the inhibition in vivo at 10 mg/kg with Abeta 40 (setting [2]) is 76%; in the test on Abeta 40 (setting [3]), 66%.

`Cc1cc(C(F)(F)F)cnc1C(=O)Nc1ccc(F)c([C@@]2(C)N=C(N)[C@@]3(C)CC[C@@H]2S3(=O)=O)c1` [Example 24, N-(3-((1S,2R,5R)-4-Amino-2,5-dimethyl-8,8-dioxido-8-thia-3-azabicyclo[3.2.1]oct-3-en-2-yl)-4-fluorophenyl)-3-methyl-5-(trifluoromethyl)picolinamide]: the IC50 on Cathepsin D (Cat D) worked out at 591 µM; in test [1] (setting [4]), 0.001 µM; on BACE1 (setting [5]), 0.005 µM. Further, the inhibition in vivo at 10 mg/kg stood at 72% with Abeta 40 (setting [2]) and 62% in the test on Abeta 40 (setting [3]).

As to `C[C@]1(c2cc(N)ccc2F)N=C(N)[C@@]2(C)CC[C@@H]1S2(=O)=O` [Example 35, (1R,4R,5S)-4-(5-amino-2-fluorophenyl)-1,4-dimethyl-8-thia-3-azabicyclo[3.2.1]oct-2-en-2-amine 8,8-dioxide], the IC50 on Cathepsin D (Cat D) was determined as 287 µM; in test [1] (setting [4]) it was 5.81 µM; on BACE1 (setting [5]), 10.1 µM. In addition, the inhibition in vivo at 10 mg/kg came out at 52% in the test on Abeta 40 (setting [2]) and 46% in the test on Abeta 40 (setting [3]).

Take `CC#Cc1ccc(C(=O)Nc2ccc(F)c([C@@]3(C)N=C(N)[C@@]4(C)CC[C@@H]3S4(=O)=O)c2)nc1` [Example 69, N-(3-((1S,2R,5R)-4-amino-2,5-dimethyl-8,8-dioxido-8-thia-3-azabicyclo[3.2.1]oct-3-en-2-yl)-4-fluorophenyl)-5-(1-propyn-1-yl)-2-pyridinecarboxamide]: the IC50 at Cathepsin D (Cat D) (average IC50, first procedure) was over 400 µM; in test [1] (setting [6]), 0.003 µM; on BACE1 (setting [7]) it was 0.002 µM. In addition, the inhibition in vivo at 10 mg/kg in the test on Abeta 40 (setting [2]) amounted to 42%; with Abeta 40 (setting [3]), 9%.

For the molecule `COc1cnc(C(=O)Nc2ccc(F)c([C@@]3(C)N=C(N)[C@@]4(C)CC[C@@H]3S4(=O)=O)c2)c(C)n1` [Example 79, N-(3-((1S,2R,5R)-4-amino-2,5-dimethyl-8,8-dioxido-8-thia-3-azabicyclo[3.2.1]oct-3-en-2-yl)-4-fluorophenyl)-5-methoxy-3-methyl-2-pyrazinecarboxamide], the IC50 came to 1830 µM at Cathepsin D (Cat D) (average IC50, first procedure); 0.003 µM in test [1] (setting [6]); 0.009 µM on BACE1 (setting [7]). In addition, the inhibition in vivo at 10 mg/kg is 71% in the test on Abeta 40 (setting [2]) and 62% with Abeta 40 (setting [3]).

`Cc1cc(C(F)(F)F)cnc1C(=O)Nc1ccc(F)c([C@@]2(C)N=C(N)[C@@]3(CF)CC[C@@H]2S3(=O)=O)c1` [Example 92, N-(3-((1S,2R,5R)-4-amino-5-(fluoromethyl)-2-methyl-8,8-dioxido-8-thia-3-azabicyclo[3.2.1]oct-3-en-2-yl)-4-fluorophenyl)-3-methyl-5-(trifluoromethyl)-2-pyridinecarboxamide]: the IC50 on Cathepsin D (Cat D) (average IC50, first procedure) stood at 789 µM; in test [1] (setting [6]), 0.005 µM; at BACE1 (setting [7]), 0.004 µM. Besides, the inhibition in vivo at 10 mg/kg with Abeta 40 (setting [2]) came to 73%; with Abeta 40 (setting [3]) it was 67%.

`C[C@]1(c2cc(Nc3ncnc4cc(Cl)cnc34)ccc2F)N=C(N)[C@@]2(CF)CC[C@@H]1S2(=O)=O` [Example 98, N-(3-((1S,2R,5R)-4-amino-5-(fluoromethyl)-2-methyl-8,8-dioxido-8-thia-3-azabicyclo[3.2.1]oct-3-en-2-yl)-4-fluorophenyl)-7-chloropyrido[3,2-d]pyrimidin-4-amine]: the IC50 on Cathepsin D (Cat D) (average IC50, first procedure) was 286 µM; in test [1] (setting [6]), 0.015 µM; at BACE1 (setting [7]), 0.005 µM. Moreover, the inhibition in vivo at 10 mg/kg is 70% in the test on Abeta 40 (setting [2]) and 74% in the test on Abeta 40 (setting [3]).

As to `Cc1cc(C(F)F)cnc1C(=O)Nc1ccc(F)c([C@@]2(C)N=C(N)[C@@]3(CF)CC[C@@H]2S3(=O)=O)c1` [Example 103, N-(3-((1S,2R,5R)-4-amino-5-(fluoromethyl)-2-methyl-8,8-dioxido-8-thia-3-azabicyclo[3.2.1]oct-3-en-2-yl)-4-fluorophenyl)-5-(difluoromethyl)-3-methyl-2-pyridinecarboxamide], the IC50 on Cathepsin D (Cat D) (average IC50, first procedure) amounted to 891 µM; in test [1] (setting [6]), 0.007 µM; at BACE1 (setting [7]) it was 0.009 µM. In addition, the results for the inhibition in vivo at 10 mg/kg with Abeta 40 (setting [2]) and in the test on Abeta 40 (setting [3]) were 62% and 58%, respectively.

For `CC(C)COc1cnc2c(Nc3ccc(F)c([C@@]4(C)N=C(N)[C@@]5(C)CC[C@@H]4S5(=O)=O)c3)nccc2n1` [Example 143, N-(3-((1S,2R,5R)-4-amino-2,5-dimethyl-8,8-dioxido-8-thia-3-azabicyclo[3.2.1]oct-3-en-2-yl)-4-fluorophenyl)-2-(2-methylpropoxy)pyrido[3,4-b]pyrazin-5-amine], the IC50 at Cathepsin D (Cat D) (average IC50, first procedure) was 150 µM; in test [1] (setting [6]), 0.164 µM; at BACE1 (setting [7]) it was 0.009 µM.

With `CCCOc1cnc2c(Nc3ccc(F)c([C@@]4(C)N=C(N)[C@@]5(C)CC[C@@H]4S5(=O)=O)c3)nccc2n1` [Example 144, N-(3-((1S,2R,5R)-4-amino-2,5-dimethyl-8,8-dioxido-8-thia-3-azabicyclo[3.2.1]oct-3-en-2-yl)-4-fluorophenyl)-2-propoxypyrido[3,4-b]pyrazin-5-amine], the IC50 on Cathepsin D (Cat D) (average IC50, first procedure) is over 400 µM; in test [1] (setting [6]), 0.071 µM; on BACE1 (setting [7]) it was 0.004 µM.

As for `Cn1ccc(COc2cnc3c(Nc4ccc(F)c([C@@]5(C)N=C(N)[C@@]6(C)CC[C@@H]5S6(=O)=O)c4)nccc3n2)n1` [Example 147, N-(3-((1S,2R,5R)-4-amino-2,5-dimethyl-8,8-dioxido-8-thia-3-azabicyclo[3.2.1]oct-3-en-2-yl)-4-fluorophenyl)-2-((1-methyl-1H-pyrazol-3-yl)methoxy)pyrido[3,4-b]pyrazin-5-amine], the IC50 at Cathepsin D (Cat D) (average IC50, first procedure) was over 400 µM; in test [1] (setting [6]) it was 0.001 µM; on BACE1 (setting [7]), 0.002 µM.

Consider `C[C@]1(c2cc(Nc3nccc4[nH]c(=O)cnc34)ccc2F)N=C(N)[C@@]2(CF)CC[C@@H]1S2(=O)=O` [Example 148, 5-((3-((1S,2R,5R)-4-amino-5-(fluoromethyl)-2-methyl-8,8-dioxido-8-thia-3-azabicyclo[3.2.1]oct-3-en-2-yl)-4-fluorophenyl)amino)pyrido[3,4-b]pyrazin-2(1H)-one], for which the IC50 at Cathepsin D (Cat D) (average IC50, first procedure) turned out to be 217 µM; in test [1] (setting [6]), 0.019 µM; on BACE1 (setting [7]) it was 0.016 µM.

The values are drawn from patent US9096615B2, “Bridged bicyclic amino thiazine dioxide compounds as inhibitors of beta-secretase and methods of use thereof” (AMGEN INC., priority 2013, dated 2015).
